# Patent publication US12029715B2, “Precursor compounds for providing retinoids of the vitamin A5 pathway and uses thereof” (UNIVERSITY OF DEBRECEN, priority 2015, dated 2024)
# Entries after “also recorded” stand apart in the source; their conditions may differ.
# Key:
# Rbp1−/− and Rxrγ−/− mice = assay: Y-maze spontaneous alternation; format: in vivo, mouse; conditions: 5-6 hours prior to testing
# Method: The Y-maze apparatus and the procedure were as previously described (Wietrzych et al., 2005). Briefly, each mouse was placed at the end of one arm and allowed to explore freely the apparatus for 5 min, with the experimenter out of the animal's sight. Spontaneous alternation performance (SAP) was assessed visually by scoring the pattern of entries into each arm and expressed as a percentage of total number of entries, discounting the first two visits. Total entries were scored as an index of ambulatory activity in the Y-maze, but none of tested mice had to be excluded due to low locomotor performance (score below 9 entries).
# (§1) Vehicle treatments consisted of 3% ethanol and 3% DMSO solution in sunflower oil. Treatments were administered by intraperitoneal injections at volume/weight ratio 3 ml/kg between 8-10 am and 5-6 h before the test as previously validated (Wietrzych-Schindler M, 2011).
# [1] = tested on: Rbp1−/−, Rxrγ−/− and WT mice; assay: Forced swim test after acute treatment; format: in vivo, mouse; conditions: Rbp1−/− mice, acute i.p. treatment 5-6 h before the test
# Method: (§2) The forced swim paradigm was carried out between 1 pm and 4 pm in a 3-litre glass beaker half-filled with water at 22-23° C. (the water depth was 17 cm). All mice were tested only once in this task. To this end, each mouse was lowered gently into the water and the time of immobility was scored during a 6-minute testing period. The mouse was judged immobile when it floated in an upright position and made only small movements to keep its head above the water. After 6 min, the mouse was taken out of the water, left to dry under a red light lamp and returned to its home cage. The immobility scores of each animal were used as an index of despair behavior.
# as §1
# as §2, with “paradigm (Dalvi and Lucki, 1999)” for “paradigm”, “2-litre” for “3-litre”
# [2] = tested on: differentiating monocyte-derived human dendritic cells; assay: DNA microarray in differentiating monocyte-derived dendritic cells; format: cell-based; conditions: for expression of genes that are direct targets of RXR permissive heterodimers (LXR-RXR, PPAR-RXR) and RAR-RXR: 9CDHRA 10 μM, 9CRA 1 μM, GW3965 1 μM, RSG 1 μM, GW1516 1 μM, AM580 100 nM
# Method: The generation and transcriptional analysis of differentiating DCs were performed as described previously [Szeles L et al. 2010]. Microarray data were deposited into the Gene Expression Omnibus database under accession no. GSE48573.
# The generation and analysis of differentiating DCs were performed as described previously [Szeles L et al. 2010] with minor modifications. Briefly, human monocytes were isolated from healthy volunteer's buffy coat, obtained with a Regional Ethical Board permit from the Regional Blood Bank and isolated by Ficoll gradient centrifugation followed by immunomagnetic cell separation, and were cultured in the presence of GM-CSF and IL-4. Differentiating DCs were stimulated 18 h after […] by various agonists for 12 h. The ligands were used in the following concentrations: 10 μM (R)-9CDHRA, 10 μM (S)-9CDHRA, 1 μM 9cisRA, 100 nM LG100268, 1 μM GW3965, 1 μM Rosiglitazone (RSG), 1 μM GW1516, 100 nM AM580. Experiments were performed in biological triplicates. Samples were processed and hybridized to Human Genome U133 Plus 2.0 Arrays. Data were analysed using to GeneSpring 12.6.1 software. In detail, normalization was performed using RMA summarization algorithm. […] Microarray data were deposited into the Gene Expression Omnibus database under accession no. GSE48573.
# [3] = tested on: oligodendrocytes cell line 158N; assay: Metabolic conversion in mouse oligodendrocytes cell culture (LC-MS); format: in vitro ADME; conditions: for 9CDHRA levels in cells after treatment: 10^−5M for 18 h; for 9CDHROL levels in cells after treatment: 10^−6 M, 18 hours; for 9CBC in cells after treatment: 411 nm detection, retention time 26.1 min; for 9CDHBC peak in cells after treatment: UV detection at 366 nm, retention time 25.1 min; for conversion to 9CDHRA: data not shown
# Method: Normal immortalized oligodendrocytes cell line 158N was cultured as previously reported (Feutz et al., 2001). Expediently, cells were cultured in supplemented with 5% calf serum (Invitrogen, France). When cells attained 70% of confluency they were treated with 10^−2 M ethanol solution of one of the following compounds: 9CDHROL, 9CDHROL-acetate, 9CDHRA-ethyl ester. 9CDHRA and ethanol as controls, vehicle treatment. 18 h after treatment cells were collected in amber Eppendorf tubes and stored at −80° C. until analyses. Treatments and cell collection were carried out in light limited conditions to avoid photolysis of retinoids.
# (§3) In a slight variant of the method, after reaching confluency of 80% cells were treated with 9CDHROL, 9CDH-retinyl ester (acetate, 9CDHROL-ES), 9CDHRA, 9CDH-retinoyl ester, (ethyl ester, 9CDHRA-ES), ATROL, 9CDHBC, 9CBC and ATBC at a concentration of 10^−6 M or ethanol at corresponding concentration was used as control vehicle treatment. Cells were harvested 18 hours later, centrifuged, weighted, frozen in liquid nitrogen and stored at −80° C. until analyses.
# (§4) High performance liquid chromatography mass spectrometry (LC-MS) was carried out as described in Example 4.
# [4] = tested on: human oligodendrocytes cell cultures; assay: Metabolic conversion in human oligodendrocytes cell culture (HPLC-MS); format: in vitro ADME; conditions: 10^−6M; for 9CDHRA levels in cells after treatment (metabolism / accumulation): n=3
# Method: as §3, §4
# 9CDHRA levels including standard deviation in human oligodendrocytes cultures were assessed using HPLC-MS analysis after control treatment using ethanol (CTRL), as well as ATROL treatment (ATROL), 9CBC treatments (9CBC), ATBC treatments (ATBC), 9CDHBC treatment (9CDHBC), 9CDHROL treatments (9CDHROL), 9CDHROL-ester treatments (9CDHROL-ES), 9CDHRA treatments (9CDHRA) or 9CDHRA-ester treatments (9CDHRA-ES), each with 10^−6M concentration and n=3 (FIG. 14D).
# [5] = Rbp1−/− mice, ATRA 5 mg/kg, UVI2108 1 mg/kg, MA 5 mg/kg, DHA 1 mg/kg, TTNPB 5 mg/kg
smiles,measurement,setting,value
COC(C)(C)CCCC(C)C/C=C/C(C)=C/C(=O)O (stereo not shown) [methoprene acid],working memory in spontaneous alternation in the Y-maze,Rbp1−/− and Rxrγ−/− mice; [5],pro-mnemonic effects
same,working memory in spontaneous alternation in the Y-maze,"Rbp1−/− and Rxrγ−/− mice; Rbp1−/− mice, ATRA 5 mg/kg, UVI2108 1 mg/kg, MA 5 mg/kg, DHA 1 mg/kg, TTNPB 5 mg/kg, listed as MA",normalised
same,working memory in spontaneous alternation in the Y-maze,"Rbp1−/− and Rxrγ−/− mice; Rxrγ−/− mice, same doses",not
same,immobility (despair) in the forced swim test,[1],normalized increased despair
same,immobility (despair) in the forced swim test,[1]; listed as MA,normalised
"Cc1cc2c(cc1C1(c3ccc(C(=O)O)cn3)CC1)C(C)(C)CCC2(C)C [LG268, reference compound]","expression of genes that are direct targets of RXR permissive heterodimers (LXR-RXR, PPAR-RXR) and RAR-RXR",[2]; LG268 100 nM,induce the expression of many genes
same,transcripts of the set common to (R)-9CDHRA and 9CRA also regulated by LG268,[2]; LG268 100 nM,61
"CCOC(=O)C[C@@H](C)/C=C/C=C(C)\C=C\C1=C(C)CCCC1(C)C [9CDHRA-ES, Ethyl (9Z,13R)-13,14-Dihydroretinoate]",9CDHRA levels in cells after treatment,[3],very strong increase
same,"production of 9CDHRA by the ester form compared with 9CDHROL and 9CDHRA, respectively",[4],higher production
same,9CDHRA levels in cells after treatment (metabolism / accumulation),[4],strong accumulation
C/C(=C\c1ccc(C(=O)O)cc1)c1ccc2c(c1)C(C)(C)CCC2(C)C [TTNPB],working memory in spontaneous alternation in the Y-maze,Rbp1−/− and Rxrγ−/− mice; [5],not
same,immobility (despair) in the forced swim test,[1],did not display such effects
"O=C(O)Cc1cccc(OCCCN(Cc2cccc(C(F)(F)F)c2Cl)CC(c2ccccc2)c2ccccc2)c1 [GW3965, reference compound]","expression of genes that are direct targets of RXR permissive heterodimers (LXR-RXR, PPAR-RXR) and RAR-RXR",[2]; LG268 100 nM,also induced
"CC1=C(/C=C/C(C)=C\C=C\C(C)=C\C(=O)O)C(C)(C)CCC1 [9CRA, 9-cis-retinoic acid, reference compound]",expression of genes induced by AM580 (RAR-RXR target genes),[2],also induced
same,number of transcripts regulated,"[2]; 10 μM (R)-9CDHRA, 1 μM 9CRA, 12 h, FC>2",450
same,"expression of genes that are direct targets of RXR permissive heterodimers (LXR-RXR, PPAR-RXR) and RAR-RXR",[2]; LG268 100 nM,induce the expression of many genes
"CC1=C(/C=C/C(C)=C\C=C\C(C)=C\C=C\C=C(C)\C=C\C=C(C)\C=C\C2=C(C)CCCC2(C)C)C(C)(C)CCC1 [9CBC, 9-cis-β,β-Carotene]",ATROL levels in cells after treatment,[3]; 10^−6M,a low conversion or induced increase
same,9CDHROL levels in cells after treatment,[3],no or just a weak increase; also recorded: weak significant increase
same,9CBC in cells after treatment,[3],could detect 9CBC
same,9CDHBC peak in cells after treatment,[3],higher peak was observed
same,conversion to 9CDHRA,[3],not converted to 9CDHRA
same,9CDHRA levels in cells after treatment (metabolism / accumulation),[4],not converted to 9CDHRA
"CC(=O)OCC[C@@H](C)/C=C/C=C(C)\C=C\C1=C(C)CCCC1(C)C (stereo in doubt) [9CDHROL-ES, (R)-9-cis-13,14-dihydroretinyl acetate]",9CDHRA levels in cells after treatment,[3],strong increase
same,9CDHROL levels in cells after treatment,[3],excellent/strongly
same,conversion to 9CDHRA,[3],excellent precursor
same,"production of 9CDHRA by the ester form compared with 9CDHROL and 9CDHRA, respectively",[4],higher production
"CC1=C(/C=C/C(C)=C/C=C/C(C)=C/C=C/C=C(C)/C=C/C=C(C)/C=C/C2=C(C)CCCC2(C)C)C(C)(C)CCC1 [ATBC, all-trans-β,β-carotene, reference compound]",9CDHROL levels in cells after treatment,[3],did not display any increase; also recorded: did not result in any increase
same,9CBC in cells after treatment,[3],no 9CBC could be detected
same,9CDHBC peak in cells after treatment,[3],not be conclusively detected
same,conversion to 9CDHRA,[3],not converted to 9CDHRA
same,ATBC level in cells after ATBC-treatment,"[3]; detectable at 411 nm, eluting at 27.2 min",present in very high levels
same,9CDHRA levels in cells after treatment (metabolism / accumulation),[4],not converted to 9CDHRA
"CC1(C)CCC(C)(C)c2cc(C(=O)Nc3ccc(C(=O)O)cc3)ccc21 [AM580, reference compound]","expression of genes that are direct targets of RXR permissive heterodimers (LXR-RXR, PPAR-RXR) and RAR-RXR",[2]; LG268 100 nM,also induced
"Cc1cc(SCc2sc(-c3ccc(C(F)(F)F)cc3)nc2C)ccc1OCC(=O)O [GW1516, reference compound]","expression of genes that are direct targets of RXR permissive heterodimers (LXR-RXR, PPAR-RXR) and RAR-RXR",[2]; LG268 100 nM,also induced
